Measurements published in patent publication US20230021483A1, “[…] […] METHOD AND CLASSIFICATION OF PHARMACEUTICAL COMPONENTS BY USING TRANSCRIPTOMES” (National Institutes of Biomedical Innovation, Health and …, priority 2016, published 2023).

How the values were obtained:
[1] = system: preferentially upregulated genes in LV, SP, LN; experiment: Z-score-based differential gene expression analysis (adjuvant group- or adjuvant-associated genes, 40 module mapping, TargetMine annotation); type: in vivo, C57BL/6 mice; settings: for Gm9706///Isg15 1431591_s_at (Group G1, Modules 20) / H2-T10///H2-T22///H2-T9 1449875_s_at (Group G1, Modules 20) / Ifih1 1426276_at (Group G1, Modules 20) / Ifit1 1450783_at (Group G1, Modules 20) / Ifit3 1449025_at (Group G1, Modules 20) / Irf7 1417244_a_at (Group G1, Modules 20) / Irgm1 1418825_at (Group G1, Modules 20) / Mndal 1426906_at (Group G1, Modules 20) / Pml 1448757_at (Group G1, Modules 20) / Pml 1456103_at (Group G1, Modules 20) / Rnf213 1455500_at (Group G1, Modules 20) / Rsad2 1436058_at (Group G1, Modules 20) / Shisa5 1423986_a_at (Group G1, Modules 20) / Shisa5 1437503_a_at (Group G1, Modules 20) / Stat1 1450033_a_at (Group G1, Modules 20) / Stat1 1450034_at (Group G1, Modules 20) / Tdrd7 1426716_at (Group G1, Modules 20) / Tor1aip2 1418115_s_at (Group G1, Modules 20) / Tor1aip2 1418116_at (Group G1, Modules 20) / Tor1aip2 1435526_at (Group G1, Modules 20) / Trim12a 1437432_a_at (Group G1, Modules 20) / Uba7 1426970_a_at (Group G1, Modules 20) / Adar 1425405_a_at (Group G1, Modules 20) / Adar 1434268_at (Group G1, Modules 20) / Ddx58 1436562_at (Group G1, Modules 20) / Ddx58 1456890_at (Group G1, Modules 20) / Eif2ak2 1422005_at (Group G1, Modules 20) / G3bp2 1421323_a_at (Group G1, Modules 20): IP, LV
Method in brief: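 Per-sample fold-change values converted to gene-wise z-scores within each organ's data set, then triplicate z-scores summed per adjuvant. Genes with summed score >3 taken as preferentially expressed; gene groups defined by combined per-adjuvant z-score thresholds (z>1 to z>3) specific to each organ.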

[2] = system: inguinal lymph nodes (LN); experiment: Whole organ transcriptome (GeneChip microarray) of draining inguinal lymph nodes 6 h after adjuvant administration: sDEGs, gene modules, hierarchical clustering; type: in vivo, C57BL/6 mice; for adjuvant group (cluster) in LN: key: G1 (interferon signaling); G2 (metabolism of lipids and lipoproteins); G3 (response to stress); G4 (response to wounding); G5 (phosphate-containing compound metabolic process); G6 (phagosome)
[3] = liver (LV), gene group G1, module 20, individual mice x1-x3, route ID/IP/IN

K3: B class CpG ODN (ATCGACTCTCGAGCGTTCTC), TLR9 ligand (chemistry not given here)
Gm9706///Isg15 1431591_s_at (Group G1, Modules 20) ([1]; sample x1): −0.5 | H2-T10///H2-T22///H2-T9 1449875_s_at (Group G1, Modules 20) ([1]; sample x1): −0.2 | Ifih1 1426276_at (Group G1, Modules 20) ([1]; sample x1): −0.4 | Ifit1 1450783_at (Group G1, Modules 20) ([1]; sample x1): −0.5 | Ifit3 1449025_at (Group G1, Modules 20) ([1]; sample x1): −0.5 | Irf7 1417244_a_at (Group G1, Modules 20) ([1]; sample x1): −0.5 | Irgm1 1418825_at (Group G1, Modules 20) ([1]; sample x1): −0.5 | Mndal 1426906_at (Group G1, Modules 20) ([1]; sample x1): −0.5 | Pml 1448757_at (Group G1, Modules 20) ([1]; sample x1): −0.5 | Pml 1456103_at (Group G1, Modules 20) ([1]; sample x1): −0.5 | Rnf213 1455500_at (Group G1, Modules 20) ([1]; sample x1): −0.5 | Rsad2 1436058_at (Group G1, Modules 20) ([1]; sample x1): −0.5 | Shisa5 1423986_a_at (Group G1, Modules 20) ([1]; sample x1): −0.6 | Shisa5 1437503_a_at (Group G1, Modules 20) ([1]; sample x1): −0.5 | Stat1 1450033_a_at (Group G1, Modules 20) ([1]; sample x1): −0.6 | Stat1 1450034_at (Group G1, Modules 20) ([1]; sample x1): −0.5 | Tdrd7 1426716_at (Group G1, Modules 20) ([1]; sample x1): −0.2 | Tor1aip2 1418115_s_at (Group G1, Modules 20) ([1]; sample x1): −0.5 | Tor1aip2 1418116_at (Group G1, Modules 20) ([1]; sample x1): −0.4 | Tor1aip2 1435526_at (Group G1, Modules 20) ([1]; sample x1): −0.3 | Trim12a 1437432_a_at (Group G1, Modules 20) ([1]; sample x1): −0.5 | Uba7 1426970_a_at (Group G1, Modules 20) ([1]; sample x1): −0.5 | Adar 1425405_a_at (Group G1, Modules 20) ([1]; sample x2): −0.5 | Adar 1434268_at (Group G1, Modules 20) ([1]; sample x2): −0.8 | Ddx58 1436562_at (Group G1, Modules 20) ([1]; sample x2): −0.2 | Ddx58 1456890_at (Group G1, Modules 20) ([1]; sample x2): −0.3 | Eif2ak2 1422005_at (Group G1, Modules 20) ([1]; sample x2): −0.7 | G3bp2 1421323_a_at (Group G1, Modules 20) ([1]; sample x2): −0.4 | Gm9706///Isg15 1431591_s_at (Group G1, Modules 20) ([1]; sample x2): −0.5 | H2-T10///H2-T22///H2-T9 1449875_s_at (Group G1, Modules 20) ([1]; sample x2): −0.2 | Ifih1 1426276_at (Group G1, Modules 20) ([1]; sample x2): −0.3 | Ifit1 1450783_at (Group G1, Modules 20) ([1]; sample x2): −0.5 | Ifit3 1449025_at (Group G1, Modules 20) ([1]; sample x2): −0.5 | Irf7 1417244_a_at (Group G1, Modules 20) ([1]; sample x2): −0.6 | Irgm1 1418825_at (Group G1, Modules 20) ([1]; sample x2): −0.5 | Mndal 1426906_at (Group G1, Modules 20) ([1]; sample x2): −0.4 | Pml 1448757_at (Group G1, Modules 20) ([1]; sample x2): −0.3 | Pml 1456103_at (Group G1, Modules 20) ([1]; sample x2): −0.3 | Rnf213 1455500_at (Group G1, Modules 20) ([1]; sample x2): −0.4 | Rsad2 1436058_at (Group G1, Modules 20) ([1]; sample x2): −0.5 | Shisa5 1423986_a_at (Group G1, Modules 20) ([1]; sample x2): −0.5 | Shisa5 1437503_a_at (Group G1, Modules 20) ([1]; sample x2): −0.4 | Stat1 1450033_a_at (Group G1, Modules 20) ([1]; sample x2): −0.5 | Stat1 1450034_at (Group G1, Modules 20) ([1]; sample x2): −0.6 | Tdrd7 1426716_at (Group G1, Modules 20) ([1]; sample x2): −0.1 | Tor1aip2 1418115_s_at (Group G1, Modules 20) ([1]; sample x2): −0.2 | Tor1aip2 1418116_at (Group G1, Modules 20) ([1]; sample x2): −0 | Tor1aip2 1435526_at (Group G1, Modules 20) ([1]; sample x2): −0.2 | Trim12a 1437432_a_at (Group G1, Modules 20) ([1]; sample x2): −0.5 | Uba7 1426970_a_at (Group G1, Modules 20) ([1]; sample x2): −0.4 | Adar 1425405_a_at (Group G1, Modules 20) ([1]; sample x3): −0.2 | Adar 1434268_at (Group G1, Modules 20) ([1]; sample x3): −0.8 | Ddx58 1436562_at (Group G1, Modules 20) ([1]; sample x3): −0.4 | Ddx58 1456890_at (Group G1, Modules 20) ([1]; sample x3): −0.4 | Eif2ak2 1422005_at (Group G1, Modules 20) ([1]; sample x3): −0.5 | G3bp2 1421323_a_at (Group G1, Modules 20) ([1]; sample x3): −0.4 | Gm9706///Isg15 1431591_s_at (Group G1, Modules 20) ([1]; sample x3): −0.5 | H2-T10///H2-T22///H2-T9 1449875_s_at (Group G1, Modules 20) ([1]; sample x3): −0.4 | Ifih1 1426276_at (Group G1, Modules 20) ([1]; sample x3): −0.5 | Ifit1 1450783_at (Group G1, Modules 20) ([1]; sample x3): −0.5 | Ifit3 1449025_at (Group G1, Modules 20) ([1]; sample x3): −0.5 | Irf7 1417244_a_at (Group G1, Modules 20) ([1]; sample x3): −0.5 | Irgm1 1418825_at (Group G1, Modules 20) ([1]; sample x3): −0.6 | Mndal 1426906_at (Group G1, Modules 20) ([1]; sample x3): −0.4 | Pml 1448757_at (Group G1, Modules 20) ([1]; sample x3): −0.6 | Pml 1456103_at (Group G1, Modules 20) ([1]; sample x3): −0.6 | Rnf213 1455500_at (Group G1, Modules 20) ([1]; sample x3): −0.5 | Rsad2 1436058_at (Group G1, Modules 20) ([1]; sample x3): −0.5 | Shisa5 1423986_a_at (Group G1, Modules 20) ([1]; sample x3): −0.8 | Shisa5 1437503_a_at (Group G1, Modules 20) ([1]; sample x3): −0.6 | Stat1 1450033_a_at (Group G1, Modules 20) ([1]; sample x3): −0.5 | Stat1 1450034_at (Group G1, Modules 20) ([1]; sample x3): −0.6 | Tdrd7 1426716_at (Group G1, Modules 20) ([1]; sample x3): −0.3 | Tor1aip2 1418115_s_at (Group G1, Modules 20) ([1]; sample x3): −0.2 | Tor1aip2 1418116_at (Group G1, Modules 20) ([1]; sample x3): −0.2 | Tor1aip2 1435526_at (Group G1, Modules 20) ([1]; sample x3): −0.5 | Trim12a 1437432_a_at (Group G1, Modules 20) ([1]; sample x3): −0.5 | Uba7 1426970_a_at (Group G1, Modules 20) ([1]; sample x3): −0.3 | preferentially induced biological process relative to adjuvants targeting the same receptor ([1]; LN, z-scores and 40 module mapping): preferentially induced RNA biogenesis | Z score of gene expression, Adar (probe 1425405_a_at) [1, 3]: −0.5 | Z score of gene expression, Adar (probe 1434268_at) [1, 3]: −0.1 | Z score of gene expression, Ddx58 (probe 1436562_at) [1, 3]: −0.5 | Z score of gene expression, Ddx58 (probe 1456890_at) [1, 3]: −0.6 | Z score of gene expression, Eif2ak2 (probe 1422005_at) [1, 3]: −0.5 | Z score of gene expression, G3bp2 (probe 1421323_a_at) [1, 3]: −0.5 | Z score of gene expression, Gm9706///Isg15 (probe 1431591_s_at) [1, 3]: −0.5 | Z score of gene expression, H2-T10///H2-T22///H2-T9 (probe 1449875_s_at) [1, 3]: −0.7 | Z score of gene expression, Ifih1 (probe 1426276_at) [1, 3]: −0.5 | Z score of gene expression, Ifit1 (probe 1449025_at) [1, 3]: −0.5 | Z score of gene expression, Ifit1 (probe 1450783_at) [1, 3]: −0.5 | Z score of gene expression, Irf7 (probe 1417244_a_at) [1, 3]: −0.4 | Z score of gene expression, Irgm1 (probe 1418825_at) [1, 3]: −0.5 | Z score of gene expression, Mndal (probe 1426906_at) [1, 3]: −0.5 | Z score of gene expression, Pml (probe 1448757_at) [1, 3]: −0.5 | Z score of gene expression, Pml (probe 1456103_at) [1, 3]: −0.6 | Z score of gene expression, Rnf213 (probe 1455500_at) [1, 3]: −0.5 | Z score of gene expression, Rsad2 (probe 1436058_at) [1, 3]: −0.5 | Z score of gene expression, Shisa5 (probe 1423986_a_at) [1, 3]: −0.5 | Z score of gene expression, Shisa5 (probe 1437503_a_at) [1, 3]: −0.5 | Z score of gene expression, Stat1 (probe 1450033_a_at) [1, 3]: −0.5 | Z score of gene expression, Stat1 (probe 1450034_at) [1, 3]: −0.5 | Z score of gene expression, Tdrd7 (probe 1426716_at) [1, 3]: −0.6 | Z score of gene expression, Tor1aip2 (probe 1418115_s_at) [1, 3]: −0.1 | Z score of gene expression, Tor1aip2 (probe 1418116_at) [1, 3]: −0.1 | Z score of gene expression, Tor1aip2 (probe 1435526_at) [1, 3]: −0.1 | Z score of gene expression, Trim12a (probe 1437432_a_at) [1, 3]: −0.4 | Z score of gene expression, Uba7 (probe 1426970_a_at) [1, 3]: −0.4 | genes in module 16 of the LNs (M16^LN), phagosome-related, macrophage-associated ([2]; LN, 6 h): upregulated | module M15^LN (immune system process, T cell associated) ([2]; LN, 6 h): weakly induced | adjuvant group (cluster) in LN ([2]; hierarchical clustering, lymph node): G5 | Number of gene probes with statistically significant changes (sDEGs), LN, Down ([2]; i.d. administration, lymph node, fold change <0.667, p<0.01, customized PA call=1, 6 h after adjuvant): 18 | Number of gene probes with statistically significant changes (sDEGs), LN, Up ([2]; i.d. administration, lymph node, fold change >1.5, p<0.01, customized PA call=1, 6 h after adjuvant): 53
